Results as given in patent publication US20240270762A1, “PENICILLIN-BINDING PROTEIN INHIBITORS” (priority 2021, published 2024).
In brackets after ≈: the same amount, converted by molar mass.

What was measured:
A. baumannii ATCC 17978 = experiment: microbe, parasite or virus in culture; format: cell-based; settings: Acinetobacter baumannii, ATCC17978, read-out: MIC, A. baumannii ATCC 17978
P. aeruginosa ATCC 35151 = experiment: microbe, parasite or virus in culture; format: cell-based; settings: Pseudomonas aeruginosa, ATCC35151, read-out: Minimum inhibitory concentration, P. aeruginosa ATCC 35151
[1] = test system: B. thailandensis ATCC 700388; experiment: microbe, parasite or virus in culture; format: cell-based; settings: Burkholderia thailandensis, ATCC700388, read-out: Minimum inhibitory concentration (MIC), B. thailandensis ATCC 700388
A. baumannii PBP2 = A. baumannii PBP2 (Acinetobacter baumannii, UniProt D0C8Z9); experiment: Bocillin-FL competition binding via gel filtration, A. baumannii PBP2
A. baumannii PBP2, sequence (D0C8Z9 whole entry): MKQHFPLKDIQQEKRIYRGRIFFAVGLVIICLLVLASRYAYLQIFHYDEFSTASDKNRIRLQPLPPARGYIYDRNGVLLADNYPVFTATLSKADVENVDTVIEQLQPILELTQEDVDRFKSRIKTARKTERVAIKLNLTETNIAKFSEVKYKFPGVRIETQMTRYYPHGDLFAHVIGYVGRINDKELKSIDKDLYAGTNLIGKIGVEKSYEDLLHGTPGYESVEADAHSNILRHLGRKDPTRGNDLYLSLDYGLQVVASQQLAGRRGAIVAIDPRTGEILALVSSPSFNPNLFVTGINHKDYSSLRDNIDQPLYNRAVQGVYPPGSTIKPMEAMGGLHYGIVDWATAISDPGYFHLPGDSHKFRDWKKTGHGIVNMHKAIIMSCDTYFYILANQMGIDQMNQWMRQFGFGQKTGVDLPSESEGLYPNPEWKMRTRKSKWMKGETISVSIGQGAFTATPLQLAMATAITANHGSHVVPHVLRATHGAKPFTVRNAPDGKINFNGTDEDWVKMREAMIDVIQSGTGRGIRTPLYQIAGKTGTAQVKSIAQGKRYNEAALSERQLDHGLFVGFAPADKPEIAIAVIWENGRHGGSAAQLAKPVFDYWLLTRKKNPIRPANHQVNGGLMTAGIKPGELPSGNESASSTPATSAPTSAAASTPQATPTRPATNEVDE
Procedure, shortened: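 Competitive equilibrium binding with Bocillin-FL reporter: PBP pre-incubated with inhibitor dilutions, Bocillin-FL added, 15 min incubation. Labelled enzyme isolated by size-exclusion spin plates, fluorescence measured; EC50 obtained by fitting bound fraction against inhibitor concentration with a Hill-coefficient model.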

[2] = molecular target: T1, PBP3 from Pseudomonas aeruginosa (PAO1) (Pseudomonas aeruginosa, UniProt G3XD46); experiment: Bocillin-FL fluorescence polarization competition binding, P. aeruginosa PBP3; settings: Binding affinity to P. aeruginosa PBP3; fluorescence polarization competition binding assay using Bocillin-FL; read-out: P. aeruginosa PBP3 Potency
T1 construct: made in house
T1 sequence (G3XD46 whole entry): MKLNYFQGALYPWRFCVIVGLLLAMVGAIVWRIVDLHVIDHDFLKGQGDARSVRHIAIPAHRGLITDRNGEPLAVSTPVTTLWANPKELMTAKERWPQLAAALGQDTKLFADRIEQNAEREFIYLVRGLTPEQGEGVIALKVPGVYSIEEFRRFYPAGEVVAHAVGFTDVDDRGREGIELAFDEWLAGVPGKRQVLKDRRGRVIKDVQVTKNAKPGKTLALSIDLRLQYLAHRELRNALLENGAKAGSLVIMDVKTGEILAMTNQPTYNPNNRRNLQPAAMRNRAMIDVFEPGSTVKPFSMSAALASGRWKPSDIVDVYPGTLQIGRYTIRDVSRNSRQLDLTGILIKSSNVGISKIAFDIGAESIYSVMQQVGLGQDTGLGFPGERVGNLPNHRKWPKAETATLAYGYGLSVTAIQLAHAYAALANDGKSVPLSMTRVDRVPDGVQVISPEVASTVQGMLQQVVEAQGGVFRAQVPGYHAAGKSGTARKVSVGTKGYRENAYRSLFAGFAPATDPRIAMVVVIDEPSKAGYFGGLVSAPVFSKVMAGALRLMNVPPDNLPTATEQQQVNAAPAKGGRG
Procedure, shortened: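 Purified PBP was preincubated with inhibitor (E. coli PBP3 1.5 μM, 30 min; P. aeruginosa PBP3 0.75 μM, A. baumannii PBP3 0.2 μM and PBP1a 1 μM, 15 min), then Bocillin-FL (0.1 μM; 0.05 μM for PBP1a) added and FP read up to 60 min. EC50 = 50% loss of bound probe.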

A. baumannii 1258916 = experiment: microbe, parasite or virus in culture; format: cell-based, Acinetobacter baumannii; settings: Acinetobacter baumannii, 1258916, read-out: MIC, A. baumannii 1258916
A. baumannii CDC-0033 = experiment: microbe, parasite or virus in culture; format: cell-based; settings: Acinetobacter baumannii, CDC0033, read-out: MIC, A. baumannii CDC-0033
A. baumannii CDC-0083 = experiment: microbe, parasite or virus in culture; format: cell-based; settings: Acinetobacter baumannii, CDC0083, read-out: MIC, A. baumannii CDC-0083
A. baumannii ATCC 19606 = experiment: microbe, parasite or virus in culture; format: cell-based; settings: Acinetobacter baumannii, ATCC19606, read-out: MIC, A. baumannii ATCC 19606
A. baumannii CDC-0045 = experiment: microbe, parasite or virus in culture; format: cell-based; settings: Acinetobacter baumannii, CDC0045, read-out: MIC, A. baumannii CDC-0045
P. aeruginosa CDC-0095 = experiment: microbe, parasite or virus in culture; format: cell-based; settings: Pseudomonas aeruginosa, CDC0095, read-out: Minimum inhibitory concentration, P. aeruginosa CDC-0095
A. baumannii CDC-0036 = experiment: microbe, parasite or virus in culture; format: cell-based; settings: Acinetobacter baumannii, CDC0036, read-out: MIC, A. baumannii CDC-0036
[3] = test system: B. humptydooensis ATCC BAA-2767; experiment: microbe, parasite or virus in culture; format: cell-based; settings: Burkholderia humptydooensis, ATCCBAA2767, read-out: Minimum inhibitory concentration (MIC), B. humptydooensis ATCC BAA-2767

Structure (SMILES) | MIC (A. baumannii ATCC 17978) | MIC (P. aeruginosa ATCC 35151) | MIC [1] | EC50 (A. baumannii PBP2) | IC50 [2] | MIC (A. baumannii 1258916) | MIC (A. baumannii CDC-0033) | MIC (A. baumannii CDC-0083) | MIC (A. baumannii ATCC 19606) | MIC (A. baumannii CDC-0045) | MIC (P. aeruginosa CDC-0095) | MIC (A. baumannii CDC-0036) | MIC [3]
O=C(NCCCN1CCN(C(=O)N[C@@H](C(=O)N[C@H]2Cc3ccc(F)c(C(=O)O)c3OB2O)c2cc(F)c(O)c(O)c2Cl)C(=O)C1=O)c1ccc(O)cc1Cl (single isomer, unassigned) [Example 471] | < 1 µg/mL | < 1 µg/mL | < 1 µg/mL | < 10 µM | < 10 µM | < 1 µg/mL | 2 to 4 µg/mL (≈ 2.52 to 5.04 µM) | > 128 µg/mL | < 1 µg/mL | < 1 µg/mL | < 1 µg/mL | 2 to 4 µg/mL (≈ 2.52 to 5.04 µM) | < 1 µg/mL
O=C(NCCCN1CCN(C(=O)NC(C(=O)N[C@H]2Cc3ccc(F)c(C(=O)O)c3OB2O)c2cc(F)c(O)c(O)c2Cl)C(=O)C1=O)c1cc(O)cc(O)c1 (stereo partly drawn) [Example 423, (3R)-3-(2-(2-chloro-5-fluoro-3,4-dihydroxyphenyl)-2-(4-(3-(3,5-dihydroxybenzamido)propyl)-2,3-dioxopiperazine-1-carboxamido)acetamido)-7-fluoro-2-hydroxy-3,4-dihydro-2H-benzo[e][1,2]oxaborinine-8-carboxylic acid] | < 1 µg/mL | < 1 µg/mL | < 1 µg/mL | < 10 µM | < 10 µM | < 1 µg/mL | 2 to 4 µg/mL (≈ 2.58 to 5.16 µM) | > 128 µg/mL | < 1 µg/mL | < 1 µg/mL | < 1 µg/mL | 2 to 4 µg/mL (≈ 2.58 to 5.16 µM) | < 1 µg/mL
O=C(NCCCN1CCN(C(=O)NC(C(=O)N[C@H]2Cc3ccc(F)c(C(=O)O)c3OB2O)c2cc(F)c(O)c(O)c2Cl)C(=O)C1=O)c1ccc(F)c(O)c1 (stereo partly drawn) [Example 409, (3R)-3-(2-(2-chloro-5-fluoro-3,4-dihydroxyphenyl)-2-(4-(3-(4-fluoro-3-hydroxybenzamido)propyl)-2,3-dioxopiperazine-1-carboxamido)acetamido)-7-fluoro-2-hydroxy-3,4-dihydro-2H-benzo[e][1,2]oxaborinine-8-carboxylic acid] | < 1 µg/mL | < 1 µg/mL | 2 to 4 µg/mL (≈ 2.57 to 5.14 µM) | < 10 µM | < 10 µM | 2 to 4 µg/mL (≈ 2.57 to 5.14 µM) | 2 to 4 µg/mL (≈ 2.57 to 5.14 µM) | < 1 µg/mL | < 1 µg/mL | < 1 µg/mL | 2 to 4 µg/mL (≈ 2.57 to 5.14 µM) | 2 to 4 µg/mL (≈ 2.57 to 5.14 µM) | 8 to 16 µg/mL (≈ 10.3 to 20.6 µM)
O=C(NCCCN1CCN(C(=O)N[C@@H](C(=O)N[C@H]2Cc3ccc(F)c(C(=O)O)c3OB2O)c2cc(F)c(O)c(O)c2Cl)C1=O)Nc1ccc(O)cc1 [Example 284, (R)-3-((R)-2-(2-chloro-5-fluoro-3,4-dihydroxyphenyl)-2-(3-(3-(3-(4-hydroxyphenyl)ureido)propyl)-2-oxoimidazolidine-1-carboxamido)acetamido)-7-fluoro-2-hydroxy-3,4-dihydro-2H-benzo[e][1,2]oxaborinine-8-carboxylic acid] | < 1 µg/mL | < 1 µg/mL | < 1 µg/mL | < 10 µM | < 10 µM | < 1 µg/mL | < 1 µg/mL | 2 to 4 µg/mL (≈ 2.68 to 5.36 µM) | < 1 µg/mL | < 1 µg/mL | < 1 µg/mL | < 1 µg/mL | < 1 µg/mL
O=C(NCCCN1CCN(C(=O)NC(C(=O)N[C@H]2Cc3ccc(F)c(C(=O)O)c3OB2O)c2cc(F)c(O)c(O)c2Cl)C(=O)C1=O)c1cc(O)cc(F)c1 (stereo partly drawn) [Example 410, (3R)-3-(2-(2-chloro-5-fluoro-3,4-dihydroxyphenyl)-2-(4-(3-(3-fluoro-5-hydroxybenzamido)propyl)-2,3-dioxopiperazine-1-carboxamido)acetamido)-7-fluoro-2-hydroxy-3,4-dihydro-2H-benzo[e][1,2]oxaborinine-8-carboxylic acid] | < 1 µg/mL | < 1 µg/mL | 2 to 4 µg/mL (≈ 2.57 to 5.14 µM) | < 10 µM | < 10 µM | 2 to 4 µg/mL (≈ 2.57 to 5.14 µM) | 2 to 4 µg/mL (≈ 2.57 to 5.14 µM) | < 1 µg/mL | < 1 µg/mL | < 1 µg/mL | 2 to 4 µg/mL (≈ 2.57 to 5.14 µM) | 2 to 4 µg/mL (≈ 2.57 to 5.14 µM) | > 128 µg/mL
O=C(NCCCN1CCN(C(=O)NC(C(=O)N[C@H]2Cc3ccc(F)c(C(=O)O)c3OB2O)c2cc(F)c(O)c(O)c2Cl)C(=O)C1=O)c1c(F)ccc(O)c1F (stereo partly drawn) [Example 413, (3R)-3-(2-(2-chloro-5-fluoro-3,4-dihydroxyphenyl)-2-(4-(3-(2,6-difluoro-3-hydroxybenzamido)propyl)-2,3-dioxopiperazine-1-carboxamido)acetamido)-7-fluoro-2-hydroxy-3,4-dihydro-2H-benzo[e][1,2]oxaborinine-8-carboxylic acid] | < 1 µg/mL | < 1 µg/mL | 2 to 4 µg/mL (≈ 2.51 to 5.03 µM) | 10 to 50 µM | < 10 µM | 2 to 4 µg/mL (≈ 2.51 to 5.03 µM) | 2 to 4 µg/mL (≈ 2.51 to 5.03 µM) | 2 to 4 µg/mL (≈ 2.51 to 5.03 µM) | < 1 µg/mL | 2 to 4 µg/mL (≈ 2.51 to 5.03 µM) | < 1 µg/mL | 2 to 4 µg/mL (≈ 2.51 to 5.03 µM) | 2 to 4 µg/mL (≈ 2.51 to 5.03 µM)
O=C(O)c1c(F)ccc2c1OB(O)[C@@H](NC(=O)C(NC(=O)N1CCN(C3CCN(C(=O)c4c(F)ccc(O)c4F)CC3)C(=O)C1=O)c1cc(F)c(O)c(O)c1Cl)C2 (stereo partly drawn) [Example 308, (3R)-3-(2-(2-chloro-5-fluoro-3,4-dihydroxyphenyl)-2-(4-(1-(2,6-difluoro-3-hydroxybenzoyl)piperidin-4-yl)-2,3-dioxopiperazine-1-carboxamido)acetamido)-7-fluoro-2-hydroxy-3,4-dihydro-2H-benzo[e][1,2]oxaborinine-8-carboxylic acid] | < 1 µg/mL | < 1 µg/mL | 2 to 4 µg/mL (≈ 2.43 to 4.87 µM) | < 10 µM | < 10 µM | < 1 µg/mL | 2 to 4 µg/mL (≈ 2.43 to 4.87 µM) | < 1 µg/mL | < 1 µg/mL | < 1 µg/mL | 2 to 4 µg/mL (≈ 2.43 to 4.87 µM) | 2 to 4 µg/mL (≈ 2.43 to 4.87 µM) | 2 to 4 µg/mL (≈ 2.43 to 4.87 µM)
O=C(NCCCN1CCN(C(=O)NC(C(=O)N[C@H]2Cc3ccc(F)c(C(=O)O)c3OB2O)c2cc(F)c(O)c(O)c2Cl)C(=O)C1=O)c1c(F)cc(O)cc1Cl (stereo partly drawn) [Example 421, (3R)-3-(2-(2-chloro-5-fluoro-3,4-dihydroxyphenyl)-2-(4-(3-(2-chloro-6-fluoro-4-hydroxybenzamido)propyl)-2,3-dioxopiperazine-1-carboxamido)acetamido)-7-fluoro-2-hydroxy-3,4-dihydro-2H-benzo[e][1,2]oxaborinine-8-carboxylic acid] | < 1 µg/mL | < 1 µg/mL | 2 to 4 µg/mL (≈ 2.46 to 4.92 µM) | < 10 µM | < 10 µM | 2 to 4 µg/mL (≈ 2.46 to 4.92 µM) | 2 to 4 µg/mL (≈ 2.46 to 4.92 µM) | > 128 µg/mL | < 1 µg/mL | < 1 µg/mL | 2 to 4 µg/mL (≈ 2.46 to 4.92 µM) | 2 to 4 µg/mL (≈ 2.46 to 4.92 µM) | 2 to 4 µg/mL (≈ 2.46 to 4.92 µM)
O=C(NCCCN1CCN(C(=O)NC(C(=O)N[C@H]2Cc3ccc(F)c(C(=O)O)c3OB2O)c2cc(F)c(O)c(O)c2Cl)C(=O)C1=O)c1ccc(O)cc1O (stereo partly drawn) [Example 307, (3R)-3-(2-(2-chloro-5-fluoro-3,4-dihydroxyphenyl)-2-(4-(3-(2,4-dihydroxybenzamido)propyl)-2,3-dioxopiperazine-1-carboxamido)acetamido)-7-fluoro-2-hydroxy-3,4-dihydro-2H-benzo[e][1,2]oxaborinine-8-carboxylic acid] | < 1 µg/mL | < 1 µg/mL | 8 to 16 µg/mL (≈ 10.3 to 20.6 µM) | < 10 µM | < 10 µM | < 1 µg/mL | 2 to 4 µg/mL (≈ 2.58 to 5.16 µM) | < 1 µg/mL | < 1 µg/mL | < 1 µg/mL | < 1 µg/mL | 2 to 4 µg/mL (≈ 2.58 to 5.16 µM) | 8 to 16 µg/mL (≈ 10.3 to 20.6 µM)
O=C(NCCCN1CCN(C(=O)NC(C(=O)N[C@H]2Cc3ccc(F)c(C(=O)O)c3OB2O)c2cc(F)c(O)c(O)c2Cl)C(=O)C1=O)c1c(F)cncc1Cl (stereo partly drawn) [Example 403, (3R)-3-(2-(2-chloro-5-fluoro-3,4-dihydroxyphenyl)-2-(4-(3-(3-chloro-5-fluoroisonicotinamido)propyl)-2,3-dioxopiperazine-1-carboxamido)acetamido)-7-fluoro-2-hydroxy-3,4-dihydro-2H-benzo[e][1,2]oxaborinine-8-carboxylic acid] | < 1 µg/mL | < 1 µg/mL | 2 to 4 µg/mL (≈ 2.51 to 5.02 µM) | 10 to 50 µM | < 10 µM | 2 to 4 µg/mL (≈ 2.51 to 5.02 µM) | 2 to 4 µg/mL (≈ 2.51 to 5.02 µM) | 2 to 4 µg/mL (≈ 2.51 to 5.02 µM) | < 1 µg/mL | < 1 µg/mL | 2 to 4 µg/mL (≈ 2.51 to 5.02 µM) | 2 to 4 µg/mL (≈ 2.51 to 5.02 µM) | 2 to 4 µg/mL (≈ 2.51 to 5.02 µM)
